From US20230312587A1, “PTERIDINONE COMPOUNDS AND USES THEREOF” (Vertex Pharmaceutical Incorporated, priority 2018, published 2023) come the findings set out here.

SMILES strings stand for the structures.

For one test, the target named is Plk1 (Homo sapiens (Human), UniProt P53350). Nature of the test: PLK1 inhibition assay (radioactive-phosphate incorporation). Particulars: Ki(app), read-out: PLK1 - 33P.ENZ - CB 10 Ki. It counts as biochemical. As for the experimental part:
Compounds were screened for their ability to inhibit Plk1 using a radioactive-phosphate incorporation assay. Assays were carried out in a mixture of 25 mM HEPES (pH 7.5), 10 mM MgCl2, 25 mM NaCl, and 2 mM DTT. Final substrate concentrations were 20 μM [γ-33P]ATP (35mCi 33P ATP/mmol ATP, Perkin Elmer/Sigma Chemicals) and 9 uM Sam68 protein. Assays were carried out at room temperature in the presence of 15 nM Plk1. An assay stock buffer solution was prepared containing all of the reagents listed above, with the exception of ATP and the test compound of interest. 0.75 μL of DMSO stock containing serial dilutions of the test compound (typically starting from a final concentration of 10 μM with 2-fold serial dilutions—final DMSO concentration 1.5%) was placed in a 384 well plate followed by addition of 25 μL [γ-33P]ATP (final concentration 20 μM). The reaction was initiated by addition of 25 μL of the assay stock buffer solution.
The reaction was stopped after 45 minutes by the addition of 25 μL 30% trichloroacetic acid (TCA) containing 10 mM cold ATP. The entire quenched reaction was transferred to a 384-well glass fiber filter plate (Millipore, Cat no. MZFBNOW50). The plate was washed with 3×5% TCA. After drying, 40 μL of Ultima Gold liquid scintillation cocktail (Perkin Elmer) was added to the well prior to scintillation counting in a PerkinElmer TopCount.
After removing mean background values for all of the data points, Ki(app) data were calculated from non-linear regression analysis of the initial rate data using the Prism software package (GraphPad Prism, GraphPad Software, San Diego California, USA).

The subject of test [1] is β-catenin-TCF-mediated reporter transcription activity in Colo 205 cells. Description: Colo 205 reporter assay (TCF/LEF luciferase). Particulars: Homo sapiens, COLO 205, 5 h, Colo 205 TCF/LEF luciferase reporter, five hours after addition of compound; read-out: TCF reporter Colo205 IC50. It counts as cell-based. The method, boiled down:
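Luciferase signal from a TCF/LEF-driven reporter, stably integrated in Colo 205 colon cancer cells, was measured 5 h after compound addition.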
(In general: Reporter assays use an easily measured gene product as a stand-in for the process of interest.)

Plk1, sequence (P53350 whole entry, species assumed): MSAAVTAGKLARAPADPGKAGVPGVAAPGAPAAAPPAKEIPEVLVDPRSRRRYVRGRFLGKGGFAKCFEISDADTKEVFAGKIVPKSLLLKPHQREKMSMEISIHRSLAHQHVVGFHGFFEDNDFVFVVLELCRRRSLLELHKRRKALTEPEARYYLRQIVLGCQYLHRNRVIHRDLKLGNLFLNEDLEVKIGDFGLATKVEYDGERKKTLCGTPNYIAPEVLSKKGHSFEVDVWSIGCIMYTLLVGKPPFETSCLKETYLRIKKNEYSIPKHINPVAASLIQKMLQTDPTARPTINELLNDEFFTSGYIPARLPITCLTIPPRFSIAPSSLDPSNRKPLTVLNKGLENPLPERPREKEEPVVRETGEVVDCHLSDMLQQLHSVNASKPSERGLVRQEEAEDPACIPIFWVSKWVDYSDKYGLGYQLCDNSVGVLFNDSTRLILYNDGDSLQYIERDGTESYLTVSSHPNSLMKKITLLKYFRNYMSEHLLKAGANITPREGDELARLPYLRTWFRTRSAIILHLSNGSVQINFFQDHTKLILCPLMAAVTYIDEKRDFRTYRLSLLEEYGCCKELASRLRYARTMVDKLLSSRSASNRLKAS

With `CC[C@H]1C(=O)N(C)c2cnc(NCc3cnn(Cc4cc(F)c(F)c(F)c4)c3)nc2N1C` [Compound 15, (7S)-7-Ethyl-5,8-dimethyl-2-(((1-(3,4,5-trifluorobenzyl)-1H-pyrazol-4-yl)methyl)amino)-7,8-dihydropteridin-6(5H)-one], at Plk1, the Ki was > 4000 nM. Further, the IC50 in test [1] is < 300 nM.
As to `CC[C@H]1C(=O)N(CC)c2cnc(NCc3cnn(Cc4ccc(F)cc4)c3)nc2N1C` [Compound 19, (7S)-5,7-Diethyl-2-(((1-(4-fluorobenzyl)-1H-pyrazol-4-yl)methyl)amino)-8-methyl-7,8-dihydropteridin-6(5H)-one], at Plk1, the Ki is > 4000 nM. Moreover, in test [1], the IC50 lay in the range of 300 to 1000 nM.
The corresponding values for `CCN1c2nc(NCc3cnn(Cc4ccc(F)cc4)c3)ncc2N(C)C(=O)[C@@H]1C` [Compound 22, (7S)-8-ethyl-2-(((1-(4-fluorobenzyl)-1H-pyrazol-4-yl)methyl)amino)-5,7-dimethyl-7,8-dihydropteridin-6(5H)-one] are > 4000 nM and < 300 nM.
Consider `CCC[C@H]1C(=O)N(C)c2cnc(NCc3cnn(Cc4cc(F)c(F)c(F)c4)c3)nc2N1C` [Compound 23, (7S)-5,8-dimethyl-7-propyl-2-(((1-(3,4,5-trifluorobenzyl)-1H-pyrazol-4-yl)methyl)amino)-7,8-dihydropteridin-6(5H)-one], for which the Ki on Plk1 was > 4000 nM. Also, the IC50 in test [1] was < 300 nM.
Turning to `CCC[C@H]1C(=O)N(C)c2cnc(NCc3cnn(Cc4ccc(F)cc4)c3)nc2N1C` [Compound 24, (7S)-2-(((1-(4-fluorobenzyl)-1H-pyrazol-4-yl)methyl)amino)-5,8-dimethyl-7-propyl-7,8-dihydropteridin-6(5H)-one], the Ki on Plk1 is > 4000 nM. Moreover, the IC50 in test [1] lay in the range of 300 to 1000 nM.
Turning to `CCN1C(=O)[C@H](C)N(CC)c2nc(NCc3cnn(Cc4ccc(F)cc4)c3)ncc21` [Compound 30, (7S)-5,8-diethyl-2-(((1-(4-fluorobenzyl)-1H-pyrazol-4-yl)methyl)amino)-7-methyl-7,8-dihydropteridin-6(5H)-one], the Ki at Plk1 is > 4000 nM. The IC50 in test [1] is < 300 nM.
As for `CC[C@H]1C(=O)N(C)c2cnc(NCc3cnn(Cc4ccc(F)cc4)c3)nc2N1C(C)C` [Compound 32, (7S)-7-ethyl-2-(((1-(4-fluorobenzyl)-1H-pyrazol-4-yl)methyl)amino)-8-isopropyl-5-methyl-7,8-dihydropteridin-6(5H)-one], at Plk1, the Ki was > 4000 nM. The half-maximal inhibitory concentration (IC50) in test [1] is 300 to 1000 nM.
Taken in the same sequence, the figures for `CCN1C(=O)[C@](C)(CC)N(CC)c2nc(NCc3cnn(Cc4ccc(F)cc4)c3)ncc21` [Compound 34, (7S)-5,7,8-triethyl-2-(((1-(4-fluorobenzyl)-1H-pyrazol-4-yl)methyl)amino)-7-methyl-7,8-dihydropteridin-6(5H)-one] were > 4000 nM and 300 to 1000 nM.
Regarding `COc1c(F)cc(Cn2cc(CNc3ncc4c(n3)N(C)[C@@H](C)C(=O)N4)cn2)cc1F` [Compound 44, (7S)-2-(((1-(3,5-difluoro-4-methoxybenzyl)-1H-pyrazol-4-yl)methyl)amino)-7,8-dimethyl-7,8-dihydropteridin-6(5H)-one], the Ki on Plk1 was > 4000 nM. Further, the concentration for half-maximal inhibition (IC50) in test [1] was < 300 nM.
`Cc1nc(NCc2cnn(Cc3cccc(C(F)(F)F)c3)c2)nc2c1NC(=O)[C@H](C)N2C` [Compound 47, (7S)-4,7,8-trimethyl-2-(((1-(3-(trifluoromethyl)benzyl)-1H-pyrazol-4-yl)methyl)amino)-7,8-dihydropteridin-6(5H)-one]: the Ki at Plk1 was > 4000 nM. In addition, in test [1], the IC50 is < 300 nM.
As to `CCN1C(=O)[C@H](CCO)N(CC)c2nc(NCc3cnn(Cc4cc(F)c(OC)c(F)c4)c3)ncc21` [Compound 48, (7S)-2-(((1-(3,5-difluoro-4-methoxybenzyl)-1H-pyrazol-4-yl)methyl)amino)-5,8-diethyl-7-(2-hydroxyethyl)-7,8-dihydropteridin-6(5H)-one], on Plk1, the Ki is > 4000 nM. Moreover, the IC50 in test [1] was < 300 nM.
As to `C[C@H]1C(=O)Nc2cnc(NCc3cnn(Cc4cc(F)c(O)c(F)c4)c3)nc2N1C` [Compound 50, (7S)-2-(((1-(3,5-difluoro-4-hydroxybenzyl)-1H-pyrazol-4-yl)methyl)amino)-7,8-dimethyl-7,8-dihydropteridin-6(5H)-one], the Ki at Plk1 was > 4000 nM. For the same compound, in test [1], the IC50 is ≥ 5000 nM.
For the compound `CCN1C(=O)[C@H](C)N(C(C)C)c2nc(NCc3cnn(Cc4cc(F)c(F)c(F)c4)c3)ncc21` [Compound 51, (7S)-5-ethyl-8-isopropyl-7-methyl-2-(((1-(3,4,5-trifluorobenzyl)-1H-pyrazol-4-yl)methyl)amino)-7,8-dihydropteridin-6(5H)-one], the Ki at Plk1 is > 4000 nM. For the same compound, the IC50 in test [1] is < 300 nM.
With `Cc1nc(NCc2ccc(Oc3ccc(F)cc3)nc2)nc2c1NC(=O)[C@H](C)N2C` [Compound 54, (7S)-2-(((6-(4-fluorophenoxy)pyridin-3-yl)methyl)amino)-4,7,8-trimethyl-7,8-dihydropteridin-6(5H)-one], the Ki at Plk1 was > 4000 nM. In addition, the IC50 in test [1] was < 300 nM.
The corresponding values for `Cc1nc(NCc2cnn([C@H]3C[C@H](c4ccc(F)cc4)C3)c2)nc2c1NC(=O)[C@H](C)N2C` [Compound 112, (7S)-2-(((trans-1-(3-(4-fluorophenyl)cyclobutyl)-1H-pyrazol-4-yl)methyl)amino)-4,7,8-trimethyl-7,8-dihydropteridin-6(5H)-one] are > 4000 nM and < 300 nM.
The corresponding values for `Cc1nc(NCc2cnn(CCC3CCCCC3)c2)nc2c1NC(=O)[C@H](C)N2C` [Compound 113, (7S)-2-(((1-(2-cyclohexylethyl)-1H-pyrazol-4-yl)methyl)amino)-4,7,8-trimethyl-7,8-dihydropteridin-6(5H)-one] are > 4000 nM and < 300 nM.
For the compound `Cc1nc(NCc2cnn(C3Cc4ccccc4C3)c2)nc2c1NC(=O)[C@H](C)N2C` [Compound 116, (7S)-2-(((1-(2,3-dihydro-1H-inden-2-yl)-1H-pyrazol-4-yl)methyl)amino)-4,7,8-trimethyl-7,8-dihydropteridin-6(5H)-one], the Ki at Plk1 was > 4000 nM. Further, the IC50 in test [1] is < 300 nM.
In the case of `Cc1noc(C)c1Cn1cc(CNc2nc(C)c3c(n2)N(C)[C@@H](C)C(=O)N3)cn1` [Compound 138, (7S)-2-(((1-((3,5-dimethylisoxazol-4-yl)methyl)-1H-pyrazol-4-yl)methyl)amino)-4,7,8-trimethyl-7,8-dihydropteridin-6(5H)-one], the Ki at Plk1 is > 4000 nM. The IC50 in test [1] was < 300 nM.
Taken in the same sequence, the figures for `Cc1nc(NCc2cnn(Cc3ccc(C(F)(F)F)o3)c2)nc2c1NC(=O)[C@H](C)N2C` [Compound 192, (7S)-4,7,8-trimethyl-2-(((1-((5-(trifluoromethyl)furan-2-yl)methyl)-1H-pyrazol-4-yl)methyl)amino)-7,8-dihydropteridin-6(5H)-one] were > 4000 nM and < 300 nM.
On to `Cc1nc(NCc2cnn(Cc3ccc(F)cc3)c2)nc2c1NC(=O)C1(CC1)N2C` [Compound 221, 2′-(((1-(4-fluorobenzyl)-1H-pyrazol-4-yl)methyl)amino)-4′,8′-dimethyl-5′,8′-dihydro-6′H-spiro[cyclopropane-1,7′-pteridin]-6′-one], for which the Ki at Plk1 is > 4000 nM. In test [1], the IC50 was < 300 nM.

Broadly, the IC50 is the midpoint of a concentration-inhibition curve.
